Reference: patent publication US11925612B2, “Bactericidal and virucidal pharmaceutical composition” (Quimica Luar SRL, priority 2015, dated 2024)
Like-named read-outs stand apart in the source and are kept apart here.

Tests used:
Burkhordelia cepacia = format: cell-based; conditions: control 1,300,000; for Colony count (UFC/mL ± 10) Burkhordelia: 4 hours at 37° C., Example 9; for Colony count (UFC/mL ± 10): 4-hour contact at 37° C., Example 8
Experimental: In this case, tests were run on a non-nutritive liquid carrier (buffer solution) wherein the antimicrobial agent is mixed with quantified inocula of pure bacterial cultures. After different incubation times, the material is seeded on agar plates to perform quantification assays on the number of bacterias surviving the treatment.
Work consisted of incubating bacterial populations of a known load in terms of CFU/mL with the compounds mentioned in different molar concentrations. In vitro test batteries were organized at different doses or concentrations and in 1.5 mL Eppendorf tubes without the addition of culture medium. To this purpose, a PBS 100 mM phosphate buffer was used to maintain physiological conditions throughout the period of each test at 37° C.
When the time for each assay finished, aliquots of 100 uL and decimal dilutions of each tube which were seeded on petri dishes for the direct count of colony forming units (CFU) in Mueller Hinton agar (MHA), using pour-plating or spread-plating standard methods.
Each plate was added with 5 uL of a solution of 2,3,5-metabolic dye triphenyltetrazolium of chloride (TTC) 1% to enhance the contrast of colonies. Plates were incubated in inverted position, in a culture stove for 24-48 hours at 37° C. and subsequently the direct count was done, adjusted by dilution factors and seeding to report results in terms of CFU/mL.
During testing, the medium was stored in thermostatic bath between 45-50° C. because the seeding technique requires imbibing and integrating bacteria in the medium.

[1] = test system: Bacillus subtilis (Gram+); test: Bactericidal test: CFU count after incubation in PBS buffer; format: cell-based; conditions: 4-hour contact at 37° C., control 500,000, Example 8
[2] = test system: Staphylococcus aureus (Gram+); test: as above; format: cell-based; conditions: control 1,000,000; for Colony count (UFC/mL ± 10) Staphylococcus: 4 hours at 37° C., Example 9; for Colony count (UFC/mL ± 10) S. aureus: 4-hour at 37° C., Example 15; for Colony count (UFC/mL ± 10): 4-hour contact at 37° C., Example 8
Klebsiella pneumoniae = test: as above; format: cell-based; conditions: 4-hour contact at 37° C., control 1,000,000, Example 8
Escherichia coli = test: as above; format: cell-based; conditions: 4-hour contact at 37° C., control 1,000,000, Example 8
Enterobacter aerogenes = test: as above; format: cell-based; conditions: 4-hour contact at 37° C., control 1,000,000, Example 8
Pseudomonas fluorescens = test: as above; format: cell-based; conditions: 4-hour contact at 37° C., control 100,000, Example 8
P. aeruginosa = test: as above; format: cell-based, Pseudomonas aeruginosa; conditions: for P. aeruginosa count (UFC/mL ± 10) As a function of treatment time: 37° C., control 2,000,000, Example 6

CC(C)Cc1ccc(C(C)C(=O)O)cc1.[Na] (stereo not drawn) [IBU-Na, SODIUM IBUPROFEN]
Colony count (UFC/mL ± 10) Burkhordelia (Burkhordelia cepacia; IBU-Na 5 mM): 1,300,000 UFC/mL
Colony count (UFC/mL ± 10) Burkhordelia (Burkhordelia cepacia; IBU-Na 10 mM): 1,300,000 UFC/mL
Colony count (UFC/mL ± 10) Burkhordelia (Burkhordelia cepacia; IBU-Na 25 mM): 40,000 UFC/mL
Colony count (UFC/mL ± 10) (Burkhordelia cepacia; IBU-Na 50 mM): 680 UFC/mL
Colony count (UFC/mL ± 10) Burkhordelia (Burkhordelia cepacia; IBU-Na 50 mM): 700 UFC/mL
Colony count (UFC/mL ± 10) (Burkhordelia cepacia; IBU-Na 100 mM): 10 UFC/mL
Colony count (UFC/mL ± 10) Burkhordelia (Burkhordelia cepacia; IBU-Na 100 mM): 10 UFC/mL
Colony count (UFC/mL ± 10) ([1]; IBU-Na 50 mM): 250 UFC/mL
Colony count (UFC/mL ± 10) ([1]; IBU-Na 100 mM): 10 UFC/mL
Colony count (UFC/mL ± 10) Staphylococcus ([2]; IBU-Na 5 mM): 1,000,000 UFC/mL
Colony count (UFC/mL ± 10) Staphylococcus ([2]; IBU-Na 10 mM): 1,000,000 UFC/mL
Colony count (UFC/mL ± 10) S. aureus ([2]; IBU-Na 12.5 mM + ClNa (1M)): 100 UFC/mL
Colony count (UFC/mL ± 10) S. aureus ([2]; IBU-Na 25 mM + ClNa (1M)): 10 UFC/mL
Colony count (UFC/mL ± 10) Staphylococcus ([2]; IBU-Na 25 mM): 30,000 UFC/mL
Colony count (UFC/mL ± 10) S. aureus ([2]; IBU-Na 50 mM + ClNa (1M)): 10 UFC/mL
Colony count (UFC/mL ± 10) ([2]; IBU-Na 50 mM): 550 UFC/mL
Colony count (UFC/mL ± 10) Staphylococcus ([2]; IBU-Na 50 mM): 600 UFC/mL
Colony count (UFC/mL ± 10) ([2]; IBU-Na 100 mM): 10 UFC/mL
Colony count (UFC/mL ± 10) Staphylococcus ([2]; IBU-Na 100 mM): 10 UFC/mL
Colony count (UFC/mL ± 10) (Klebsiella pneumoniae; IBU-Na 50 mM): 600 UFC/mL
Colony count (UFC/mL ± 10) (Klebsiella pneumoniae; IBU-Na 100 mM): 10 UFC/mL
Colony count (UFC/mL ± 10) (Escherichia coli; IBU-Na 50 mM): 500 UFC/mL
Colony count (UFC/mL ± 10) (Escherichia coli; IBU-Na 100 mM): 10 UFC/mL
Colony count (UFC/mL ± 10) (Enterobacter aerogenes; IBU-Na 50 mM): 450 UFC/mL
Colony count (UFC/mL ± 10) (Enterobacter aerogenes; IBU-Na 100 mM): 10 UFC/mL
Colony count (UFC/mL ± 10) (Pseudomonas fluorescens; IBU-Na 50 mM): 150 UFC/mL
Colony count (UFC/mL ± 10) (Pseudomonas fluorescens; IBU-Na 100 mM): 10 UFC/mL
P. aeruginosa (UFC/mL ± 10) (P. aeruginosa; IBU 10 mM, 4 h at 37° C., control 1,700,000, Example 4): 760,000 UFC/mL
P. aeruginosa (UFC/mL ± 10) (P. aeruginosa; IBU 20 mM y NaCl (1M), preincubated 1 hour with human Albumin 5 mg/mL, 4 hours at 37° C., control 1,000,000, Example 16): 1500 UFC/mL
P. aeruginosa (UFC/mL ± 10) (P. aeruginosa; IBU 20 mM, 4 h at 37° C., control 1,700,000, Example 4): 300,000 UFC/mL
P. aeruginosa (UFC/mL ± 10) (P. aeruginosa; IBU 50 mM, 4 h at 37° C., control 1,700,000, Example 4): 50 UFC/mL
P. aeruginosa count (UFC/mL ± 10) As a function of treatment time (P. aeruginosa; IBU-Na 1 mM, 1 hour): 2,000,000 UFC/mL
P. aeruginosa count (UFC/mL ± 10) As a function of treatment time (P. aeruginosa; IBU-Na 1 mM, 4 hours): 2,000,000 UFC/mL
P. aeruginosa count (UFC/mL ± 10) As a function of treatment time (P. aeruginosa; IBU-Na 1 mM, Overnight (O.N.)): 2,000,000 UFC/mL
P. aeruginosa (UFC/mL ± 10) (P. aeruginosa; IBU-Na 1 mM, Population A (control 200,000), 4 h at 37° C., Example 5): 200,000 UFC/mL
P. aeruginosa (UFC/mL ± 10) (P. aeruginosa; IBU-Na 1 mM, Population B (control 20,000), 4 h at 37° C., Example 5): 20,000 UFC/mL
P. aeruginosa (UFC/mL ± 10) (P. aeruginosa; IBU-Na 1 mM, Population C (control 2,000), 4 h at 37° C., Example 5): 2,000 UFC/mL
P. aeruginosa count (UFC/mL ± 10) As a function of treatment time (P. aeruginosa; IBU-Na 2.5 mM, 1 hour): 2,000,000 UFC/mL
P. aeruginosa count (UFC/mL ± 10) As a function of treatment time (P. aeruginosa; IBU-Na 2.5 mM, Overnight (O.N.)): 2,000,000 UFC/mL
